# Test results taken from patent publication US9765378B2, “Preparation method of new recombinant antibacterial polypeptide medicine” (priority 2011, dated 2017).
# System: Staphylococcus (Staphylococcus aureus, Staphylococcus epidermidis, Staphylococcus saprophyticus, and Staphylococcus sciuri)
# Experiment: in vitro inhibition and bactericidal effect on bovine mastitis isolated pathogenic bacteria: Staphylococcus
# Type: cell-based
# Conditions: control antibiotics
# Description: (5) the recombinant antibacterial polypeptide medicine was tested for the in vitro inhibition and bactericidal effect on bovine mastitis isolated pathogenic bacteria.
row,SMILES,inhibition and bactericidal effect of controls (MIC50/MBC50 not specified) [µg/mL]
1,CC(=O)OCC1=C(C(=O)O)N2C(=O)[C@@H](NC(=O)Cc3cccs3)[C@H]2SC1 [cephalothin],2
2,Cc1onc(-c2ccccc2)c1C(=O)N[C@@H]1C(=O)N2[C@@H]1SC(C)(C)[C@@H]2C(=O)O [oxacillin],4
